For 106 compounds, EC50 results are on record in PubChem BioAssay AID1397 (The Scripps Research Institute Molecular Screening Center, 2008).

pEC50: −log10 of the molar value. Activity calls are given as the source filed them.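 Rule for the calls: active = potency EC50 for STAT1 activation at or below 10 micromolar; inactive = EC50 above 10 micromolar.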

The first test relates to NIH 3T3 STAT1-luciferase reporter, luminescence. The test is described as follows: enhancement of STAT1 reporter activity – cell-based, NIH 3T3, luciferase luminescence, dose response (AID 1397).
Details: not given
The term pEC50 denotes the negative decadic logarithm of the EC50, by convention in mol/L. Regarding `Nc1ccccc1C(=O)OCC(=O)N1CCc2ccccc21`, the pEC50 was 5.65. The same measure, in the same setting: the figure for `CC(=O)Nc1ccccc1C(=O)OCc1cccc(F)c1` is 5.52.

The same test, now with this note: cells stimulated with IFN-gamma at EC80.
The term EC50 denotes the concentration giving half of the maximal effect. With `CC(=O)NC(=S)Nc1sc2c(c1C#N)CCCCC2`, the EC50 was > 0.076 µM (inactive). `O=C(c1ccccc1)c1ccc(N2CCCC2)cc1`: the pEC50 is 5.71. Consider `C/C(=C\c1ccccc1)C(=O)Nc1nccs1`, for which the pEC50 was 5.68.

Regarding `COc1ccc(NC(=S)Nc2ccc3nccnc3c2)cc1`, the EC50 is 13.3 µM (inactive).

With `Fc1ccc2nc(Nc3nc4cc5c(cc4s3)OCCO5)sc2c1`, the pEC50 is 5.89. Regarding `Cc1cc(C(=O)NCCC2=CCCCC2)c(C)o1`, the EC50 is > 0.229 µM (inactive). Take `Cc1nnc(SCC(=O)Nc2ccc(-c3nc4ccccc4s3)cc2)s1`: the pEC50 is 7.03. Same read-out and setting: for `Cc1ccc(NC(=O)Nc2ccc3oc(C)nc3c2)cc1` the value was 5.78. On to `O=C(NCCC1=CCCCC1)c1ccc(F)cc1`, for which the EC50 was > 0.687 µM (inactive). On to `O=C(CCc1nnc(CCCc2ccccc2)o1)N1CCCCCC1`, for which the pEC50 is 5.11.

For the compound `O=C(Nc1ccc(-c2nc3cccnc3s2)cc1)c1ccco1`, the pEC50 was 6.47.

For the compound `O=C(/C=C/c1ccc(F)cc1)Nc1nc2ccccc2[nH]1`, the pEC50 is 6.04. The same measure, in the same setting: the figure for `O=C(O)c1ccccc1C(=O)Nc1ccc(-c2csc(-c3ccccc3)n2)cc1` is 5.41.

With `O=C(OCc1csc(-c2ccccc2)n1)c1cccs1`, the EC50 was > 0.687 µM (inactive).

On to `CC(=O)Nc1ccc(-c2csc(Nc3cccc(C)n3)n2)cc1`, for which the pEC50 is 5.78. The same measure, in the same setting: for `Cc1ccc2nc(NC(=O)CCn3cccc3)sc2c1` the value was 5.16. For `Cc1nc2ccc(-c3nc4ccccc4o3)cc2[nH]1`, the pEC50 is 6.45. Consider `Nc1ncc(-c2cc3ccccc3oc2=O)s1`, for which the EC50 was > 0.687 µM (inactive).

Consider `O=C(Cn1cnc2ccccc2c1=O)c1ccc(Cl)cc1`, for which the pEC50 is 5.09.

As for `CC(=O)Nc1cccc(-c2cnc3ccccc3n2)c1`, the pEC50 was 5.41.

With `Cc1ccc(/C=C/C(=O)Nc2ccccc2C(N)=O)cc1`, the EC50 was > 0.687 µM (inactive).

With `CCCOC(=O)c1ccc(-c2ccc(C=O)o2)cc1`, the pEC50 was 6.36. Still for that read-out and setting: for `Nc1nc2ccc(-c3nc4ccccc4o3)cc2s1` the value was 6.29.

As for `Clc1ccc(-n2ncc3c(NCC4CCCO4)ncnc32)cc1` (stereo unspecified), the pEC50 was 6.39. Consider `CN1C(=O)/C(=C/C=C2\SCCN2C)SC1=S`, for which the pEC50 was 6.38. As for `O=C(Nc1nccs1)c1ccc(-c2ccc([N+](=O)[O-])cc2)o1`, the pEC50 was 5.92. As for `CC(=O)c1cccc(N/C=C\C(=O)c2ccc(C)cc2)c1`, the EC50 was > 0.687 µM (inactive).

Turning to `O=C(Nc1ccc2c(c1)OCCO2)c1ccc(Br)s1`, the EC50 was > 0.229 µM (inactive).

With `Cc1ccc(-c2cc(N)n(-c3ccccc3)n2)cc1`, the pEC50 was 5.52. Regarding `CCOCC(=O)Nc1nc2ccc(OCC)cc2s1`, the EC50 is > 55.7 µM (inactive). Same read-out and setting: the figure for `COc1ccc(-c2cc(C)nc3c(-c4ccccc4)cnn23)cc1` is > 0.076 µM (inactive). As to `O=C(Nc1cccc(Cl)c1)c1ccc2c(=O)n3c(nc2c1)CCCCC3`, the negative-log EC50 (pEC50) is 6.09. On to `Cc1nc(-c2ccc(NC(=O)c3ccccc3C)cc2)cs1`, for which the pEC50 was 5.73. For `O=C(/C(C=Nc1ccc(F)cc1)=C(/O)c1ccco1)C(F)(F)F`, the EC50 is > 0.687 µM (inactive). Still for that read-out and setting: the figure for `C=CCn1c(C)cc(C(=O)CSc2nc3ccccc3o2)c1C` is > 0.229 µM (inactive). Turning to `CCc1ccc(NC(=O)N2CCC(c3ccccc3)C2)cc1` (stereo unspecified), the pEC50 is 5.86. In the case of `CN(C)c1nc(N)nc(CSc2nc3cc(Cl)ccc3o2)n1`, the EC50 was 18.6 µM (inactive). Consider `COc1ccc2nc(Nc3ccc4c(c3)OCO4)sc2c1`, for which the pEC50 is 5.51. For the compound `COc1ccc(N/C=C\C(=O)c2ccc3c(c2)OCO3)cc1OC`, the pEC50 is 5.54. Regarding `Cc1ncsc1C(=O)Nc1nc2c(s1)CCCC2`, the pEC50 was 5.57. With `COc1ccc(/C=C/C(=O)Nc2ccccc2)cc1OC`, the pEC50 was 5.29.

As to `CC(C)=CC(=O)Nc1nc2ccc([N+](=O)[O-])cc2s1`, the negative logarithm of the EC50 (pEC50) was 5.50. On to `Cc1ccc(/C=C/C(=O)N2CCCC(C)C2)cc1` (stereo unspecified), for which the EC50 was > 0.687 µM (inactive). Turning to `C=CCNC(=O)c1cc(-c2ccc(Br)cc2)on1`, the negative logarithm of the EC50 (pEC50) was 6.08. With `C=CCNc1nc(-c2cc3ccccc3o2)cs1`, the EC50 was > 0.764 µM (inactive). Turning to `Cc1ccc(C(=O)/C=C/Nc2cccc([N+](=O)[O-])c2)o1`, the pEC50 was 5.86. Consider `Fc1ccccc1CSc1nnc(-c2cccnc2)o1`, for which the pEC50 is 5.34. Same read-out and setting: for `O=C(NC(=S)Nc1ccccn1)c1ccc([N+](=O)[O-])cc1` the value was 6.28; for `CC(C)(C)N=C1NN=C(c2cc3ccccc3o2)CS1`, 6.08; for `CCOC(=O)/C(C#N)=C/c1cc(C)n(-c2ccccc2)c1C`, 7.16. With `COc1ccc(-c2csc(N3C(=O)CNC3=S)n2)cc1`, the pEC50 was 7.06.

As to `Cc1ccc(-c2cnc(-c3ccncc3)o2)cc1`, the pEC50 was 5.48. `CC(=O)COc1ccc2c(C)c(-c3ccccc3)c(=O)oc2c1`: the EC50 is 31.5 µM (inactive). Consider `CCCCOC(=O)Nc1nc2ccccc2s1`, for which the negative logarithm of the EC50 (pEC50) was 6.13. `COc1ccc2[nH]c3c(c2c1)CCn1c-3nc2ccccc2c1=O`: the EC50 is > 0.076 µM (inactive). Regarding `NC(=O)Cc1ccc2sc(-c3ccccc3)nc2c1`, the pEC50 is 6.33.

Turning to `CCOC(=O)c1ccc2nc(NC(C)=O)sc2c1`, the pEC50 was 5.59.

With `CCNc1nc(-c2cc3ccccc3o2)cs1`, the pEC50 was 6.75. For `Cc1ccc(C(=O)Nc2nc3ccccc3s2)s1`, the EC50 was > 0.076 µM (inactive). As to `CCOC(=O)c1cnc2c(-c3ccccc3)cnn2c1N`, the pEC50 is 6.64. On to `N#C/C(=C\c1ccc(N2CCOCC2)o1)c1nc2ccccc2[nH]1`, for which the EC50 was > 0.076 µM (inactive). As for `CCOC(=O)c1sc(NC(=O)c2sccc2C)cc1C`, the pEC50 was 6.63. Consider `Cc1nc2ccc3nc(NC(=O)c4ccco4)sc3c2s1`, for which the EC50 was 11 µM (inactive). Turning to `COc1ccc2c(c1)oc(=O)c1cc(OC)ccc12`, the pEC50 is 5.37.

For the compound `Nc1ccc2nn(-c3ccccc3)nc2c1`, the pEC50 is 5.87. On to `CCOC(=O)CSc1nc(-c2ccncc2)ccc1C#N`, for which the pEC50 was 5.92. For the compound `C=CCNC(=S)NNC(=O)COc1ccc2cc(Br)ccc2c1`, the pEC50 was 5.52.

Regarding `Nc1ccccc1Nc1cc(-c2ccccc2)[nH]n1`, the pEC50 was 5.57. As to `c1ccc(CNc2ccc3ccccc3n2)nc1`, the EC50 was > 0.687 µM (inactive). The same measure, in the same setting: for `O=C(/C(C=Nc1ccc(Br)cc1)=C(/O)c1ccco1)C(F)(F)F` the value was > 0.685 µM (inactive).

Turning to `CCc1ccc(Nc2ncc3c(n2)CC(C)CC3=O)cc1` (stereo unspecified), the pEC50 was 6.12. On to `COc1cc(NC(=O)c2csc3c2CCCC3)ncn1`, for which the pEC50 is 5.92. For the compound `Nc1ccc2oc(-c3ccccc3Cl)nc2c1`, the EC50 is > 0.229 µM (inactive). On to `c1cncc(-c2nc3cc4ccccc4cc3[nH]2)c1`, for which the negative-log EC50 (pEC50) was 6.48. Same read-out and setting: for `COc1ccc2nc(Nc3nc(C)c(C(C)=O)s3)sc2c1` the value was 5.67; for `O=C(/C=C/c1cccc(F)c1)N1CCc2ccccc21`, 6.68.

Consider `c1csc(C2=NNC(=NC3CCCCC3)SC2)c1`, for which the EC50 is > 0.688 µM (inactive). On the same count and under the same terms, for `Cc1ccc(C(=O)Nc2nc3c(s2)CCCC3)o1` the value was > 0.229 µM (inactive).

As for `O=C(/C=C/Nc1ccccc1F)c1ccc(Br)cc1`, the EC50 was > 0.076 µM (inactive). Take `CCOc1ccc2nc(N3CCOCC3)nc(C)c2c1`: the pEC50 was 5.64.

As to `COc1cccc(NC(=O)Nc2ccc(C(C)(C)C)cc2)c1`, the negative logarithm of the EC50 (pEC50) was 5.55. As for `COc1ccc(Nc2oc(-c3cccs3)nc2C#N)cc1`, the pEC50 was 5.49. With `Clc1ccc(-n2ncc3c(N4CCCC4)ncnc32)cc1`, the EC50 was > 55.7 µM (inactive). With `Cc1cccc(Nc2n[nH]c(C)c2[N+](=O)[O-])c1`, the pEC50 is 5.91. As for `CC(=O)c1cccc(NC(=S)NC(=O)c2cccc(C)c2)c1`, the pEC50 was 5.72.

In the case of `CN(C)c1ccnc2sc(C(=O)c3ccccc3)c(N)c12`, the negative logarithm of the EC50 (pEC50) is 5.71.

In the case of `O=C(/C=C/Nc1ccc(F)cc1)c1ccc(Br)cc1`, the pEC50 is 6.37. Same read-out and setting: for `COc1cccc(N/C=C/C(=O)c2ccc(Cl)cc2)c1` the value was 6.94; for `CCc1c(C)[nH]c(C(=O)OCc2ccccc2)c1C`, 5.16; for `CCC(C)NC(=O)c1cc(-c2ccc(OC)cc2)on1` (stereo unspecified), 5.89. For `CN(C)c1ccc(C(=O)OCC(=O)c2cccs2)cc1`, the EC50 is > 0.687 µM (inactive).

For the compound `COc1ccc(-c2nc3ccc([N+](=O)[O-])cc3[nH]2)cc1`, the pEC50 was 6.90. On the same count and under the same terms, the figure for `O=C(/C=C/c1ccccc1)Nc1ccc(Cl)cn1` is 6.17; for `Cc1occc1C(=O)Nc1ccc2c(c1)CCC2` it is 5.80. As to `Cc1ccc(-c2cc3nc(C)cc(NCc4ccco4)n3n2)cc1`, the pEC50 is 5.46. Take `COc1ccc(-c2cc3ncc(-c4ccccc4)c(N)n3n2)cc1`: the pEC50 was 5.92. With `CC(C)Oc1ccc2c(=O)c(-c3ccccc3)coc2c1`, the pEC50 is 6.38. As for `Cc1nc(-c2ccc(NC(=O)c3ccccc3Br)cc2)cs1`, the pEC50 is 5.59.

On to `CCN(CC)c1ccc2cc(C(=O)Nc3ccccn3)c(=O)oc2c1`, for which the EC50 was > 0.076 µM (inactive). In the case of `O=C(/C=C/c1ccco1)Nc1ccccn1`, the EC50 is > 0.687 µM (inactive). On the same count and under the same terms, for `Cc1ccc(C(=O)N2CCc3ccccc32)o1` the value was > 0.687 µM (inactive). With `O=C(NC(=S)Nc1ccc(F)cc1)c1ccc2c(c1)OCCO2`, the pEC50 is 6.00. Same read-out and setting: for `CCCCCNc1nc(-c2ccccc2)cs1` the value was 6.07; for `O=[N+]([O-])c1ccccc1OCCCn1cnc2ccccc21`, 5.82.
